Key:
[1] = test system: prostate cancer (LNCaP and PC-3) and prostate cancer (RC77 T/E and MDA PCa 2b) cell lines; assay: Caspase 3/7 activity-based apoptosis assay, prostate cancer cell lines; design: species or system human
Protocol: […] RC77 T/E, a primary prostate cancer cell line derived from a patient, was kindly provided by Dr. Johng Rhim at Center for Prostate Disease Research (CPDR) in Rockville, MD. LNCaP and PC-3 were served as prostate cancer cell line models, and RC77 T/E and MDA PCa 2b were served as prostate cancer cell models in the study. The cells were cultured in specific cell culture media, LNCaP was cultured in RPMI with 10% fetal bovine serum (FBS), PC-3 was cultured in DMEM with 10% FBS, MDA PCa 2b were cultured in BRFF-HPC1 with 20% FBS and RC77 T/E was cultured in Keratinocyte SFM with Human Recombinant Epidermal Growth Factor (EGF 1-53) and Bovine Pituitary Extract (BPE). Cells were maintained at 37° C. in a 5% CO2 incubator. LNCaP, PC-3 and MDA PCa 2b cells were seeded at density 3×10^4 cells/well in 6-well plates. RC77 T/E cells were seeded at density 5×10^4 cells/well in 6-well plates. The cells were allowed to grow for 24 h and then were either transfected with miR-34a-5p mimic, miR-99b-5p mimic, or miR-96-5p antagomir using DharmaFECT4 transfection reagent (Dharmacon), according to the manufacturer's protocol. After 24 h, the cells were replaced with fresh media then incubated for 24 h. miR-34a-5p mimic, miR-99b-5p mimic, miR-96-5p antagomir, and nonsense miRNA mimic and antagomir controls were purchased from Ambion. Nonsense/scrambled miRNA mimic and antagomir were used as negative controls.
For the measurement of apoptosis initiation by transfection of miRNA mimic or antagomir in prostate cancer cells, the transfected cells 5000 cells/well were seeded onto 96-well cell culture plates (Corning) and then incubated overnight. The miRNA mimic/antagomir transfected cells were then treated with vehicle or […] of Docetaxel. 24 h after the vehicle or drug treatment, the apoptosis assays were performed using Apo-ONE Caspase-3/7 Assay Kit (Promega Corporation) according to the protocol described by the manufacturer. 100 μL of homogeneous Caspase-3/7 reagent was added to the sample plate and incubated at room temperature for 1 h. Fluorescence was detected for measuring the apoptosis state (Caspase 3/7 activity) using Biotek Synergy HT Microplate Reader (BioTek) at wavelengths of 499 nm and 521 nm for excitation and emission, respectively.

[2] = test system: mTOR and pmTOR; assay: Immunofluorescence of mTOR and pmTOR in colon, breast and lung cancer cell lines; format: cell-based, human
Description: The human cell lines used in the study included: 22Rv1, LNCaP, PC-3, RC77 T/E and MDA PCa 2b (prostate cancer cell lines), MDA MB 231 and MCF-7 (breast cancer cell lines), HT-29 and SW620 (colon cancer cell lines), A549 and H1299 (lung cancer cell lines). RWPE-1, HMEC, FHC, and BEAS-2B were used as normal control cell lines for prostate, breast, colon, and lung, respectively. Note that 22Rv1 is a castration-resistant […] prostate cancer cell line, while LNCaP and PC-3 were derived from lymph node and bone metastasis of […] prostate cancer patients, respectively. RC77 T/E was derived from a primary prostate cancer patient, and MDA PCa 2b was derived from bone metastasis of an prostate cancer patient. The cell lines described were used as in vitro cell models to evaluate the functional roles of miR-99b-5p/MTOR pairing in the […] prostate cancer, African American prostate cancer and solid tumors in general. The cells were grown in specific cell culture media described as follows: 22Rv1, LNCaP, MCF-7 and H1299 were cultured in RPMI-1640 with 10% fetal bovine serum (FBS), PC-3, A549 and FHC were cultured in DMEM with 10% FBS, RC77 T/E was cultured in Keratinocyte SFM with human recombinant epidermal growth factor (EGF) and bovine pituitary extract (BPE), MDA PCa 2b were cultured in BRFF-HPC1 with 20% FBS, HT-29 was cultured in McCory's with 10% FBS, SW620 and MDA MB 231 were cultured in L-15 with 10% FBS, HMEC was cultured in mammary epithelial cell basal medium with supplements, and BEAS-2B was cultured in BEBM base medium with BEBM supplement kit. Cells were maintained at 37° C. in a 5% CO2 incubator.
The 22Rv1, LNCaP, PC-3, MDA PCa 2b, MCF7, H1299, A549, HT-29, SW620, MDA MB-231, HMEC and BEAS-2B cells were seeded at a density of 3×10^5 cells/well in 6-well plates. RC77 T/E cells were seeded at a density of 5×10^5 cells/well in 6-well plates. The cells were grown for 24 h and then transfected with nonsense/scrambled RNA (NS) and miR-99b-5p mimic (Ambion) using DharmaFECT4 transfection reagent (Dharmacon). After 24 h, fresh media were applied to replace the transfection reagent-containing media, then the cells were incubated for an additional 24 h.
In this process, 4×10^4 cells were seeded on cover slip and allowed to adhere for 24 h in 5% CO2 incubator at 37° C. All the cells were subjected to immunofluorescence assays 48 h following transfection. Briefly, cells were washed with 1×PBS, fixed in 4% paraformaldehyde, and permeabilized with 0.1% Triton X-100. Cells were then blocked for 1 h with 2% BSA in 1×PBS. […] All labeled and/or prepared cells mounted on glass slides and were visualized by fluorescence microscopy (Olympus). […]

[3] = HT-29, SW620, MDA MB 231, MCF-7, A549, H1299, miR-99b-5p transfected vs NS transfected
[4] = six colon, breast, lung cancer cell lines, mimic vs NS

miR-99b-5p mimic: miRNA mimic of miR-99b-5p (SEQ ID NO: 2, CACCCGUAGAACCGACCUUGCG), purchased from Ambion (listed as RNA, chemistry not given here; listed as Homo sapiens)
docetaxel-induced cytotoxicity (caspase 3/7 activity), combination with docetaxel ([1]; LNCaP cells, 11 mM of Docetaxel, 24 h): further enhanced | apoptosis (caspase 3/7 activity), transfection in the presence of docetaxel ([1]; RC77 T/E and MDA PCa 2b, 11 mM of Docetaxel, 24 h): significantly induced apoptosis | cell apoptosis (caspase 3/7 activity) compared with NS transfected cells ([1]; absence of docetaxel (vehicle control), LNCaP, PC-3, RC77 T/E, MDA PCa 2b): overall generalized or significant increase | mTOR levels (immunofluorescence) [2, 3]: generalized reduction | pmTOR levels (immunofluorescence) [2, 3]: generalized reduction | cytoplasmic mTOR/nuclear mTOR ratios (immunofluorescence) [2, 4]: elevated | cytoplasmic pmTOR/nuclear pmTOR ratios (immunofluorescence) [2, 4]: elevated

Source: patent publication US20240287614A1, “RECIPROCAL MICRORNA-MRNA PAIRINGS AS BIOMARKERS AND THERAPEUTIC TARGETS IN CANCER” (UNIVERSITY OF MARYLAND, EASTERN SHORE, priority 2023, published 2024)
